# Source: patent US20060019936A1 (priority 2004, published 2006)
# Entries after “also recorded” stand apart in the source; their conditions may differ.
# What was measured:
# p70S6K = test: Phosphorylation status of p70S6K in LNCaP cells; type: cell-based, human; details: after addition to cells
# LNCaP cells [1] = test: Annexin V staining and flow cytometry; type: cell-based, human; details: treatment for 15 h
# p45 Skp2 = type: cell-based, human; details: LNCaP cells, 10 μM, up to 15 h
# [2] = system: human colon adenocarcinoma cell line DLD-1; test: DLD-1 xenograft in nude mice; type: in vivo
# [3] = system: LNCaP cells grown as a xenograft; test: LNCaP xenograft in nude mice; type: in vivo; details: seven weekly five-day cycles of 30 mg/kg IP
# Protocol: The efficacy of 11β-dichloro was examined toward LNCaP cells grown as a xenograft in nude mice. […] Animals bearing LNCaP xenografts were treated with seven consecutive weekly five-day cycles of 30 mg 11β-dichloro/kg administered via IP injection.
# Animal Studies. Four to six week old NIH Swiss nu/nu athymic male mice (25 gm) were obtained from the National Cancer Institute-Frederick Cancer Center (Frederick, Md.). Experiments were carried out under guidelines of the MIT Animal Care Committee. Animals were injected subcutaneously in the right flank with 5×10^6 LNCaP cells suspended in a solution of 50% PBS/50% Matrigel (Collaborative Research, Bedford, Mass.). Therapy commenced when a palpable tumor of approximately 4×4 mm formed (n=5 per treatment group). The 11β-dichloro compound was dissolved in a vehicle composed of cremophor EL, saline and ethanol (43:30:27). Tumor dimensions were measured with vernier calipers. Tumor volumes were calculated using the formula: π/6×larger diameter×(smaller diameter)^2. Statistical analyses were performed using a paired t-test. At the end of the study period, animals were euthanized with CO2. At the time of sacrifice, blood samples were taken from several animals in each group for a complete blood count, along with serum chemistry and liver function analyses. A complete necropsy was also performed, including histopathology on two animals from each group.
# LNCaP cells [4] = test: DNA fragmentation by agarose gel electrophoresis; type: cell-based, human; details: 10 μM, 24 h exposure
# PARP = type: cell-based, human; details: 10 μM, LNCaP cells
# LNCaP cells [5] = type: cell-based, human
# p21 (WAF1/Cip1) = type: cell-based, human; details: LNCaP cells, 10 μM
# [6] = system: LNCaP, PC3 and DU145 cells; test: Differential sensitivity of AR positive and AR negative cells; type: cell-based, human; details: dose of 10 μM
# Protocol: AR positive LNCaP cells were 7-fold more sensitive than AR negative PC3 and DU145 cells at a dose of 10 μM. Investigations on similar molecules in which a ligand for the estrogen receptor (ER) was tethered to the same DNA damaging warhead, a similar (but slightly smaller) differential toxicity in favor of killing ER positive cells was observed.
# LNCaP cells [7] = test: Cell cycle analysis by flow cytometry; type: cell-based, human; details: LNCaP cells
# LNCaP cells [8] = type: cell-based, human; details: LNCaP cells, single agent
# [9] = system: engineered estrogen receptor ligand binding domain-positive HeLa cell line; test: ER ligand binding domain-positive HeLa xenograft in nude mice; type: in vivo
# p27 (Kip1) = type: cell-based, human; details: LNCaP cells, 10 μM, up to 15 h
# 4E-BP1 = test: Phosphorylation status of 4E-BP1 in LNCaP cells; type: cell-based, human
# liver DNA = test: DNA adduct formation in liver of treated mice; type: in vivo; details: two hours post dosing
# Protocol: A set of in vivo studies was performed to assess the stability and biodistribution of the 11β-dichloro compound in mice. These studies required formulation of the compound in a vehicle that would deliver the compound to the tissues following IP or IV administration. The vehicle was Cremophor EL:ethanol:saline (40:30:30 by volume). […] For 2 to 3 hours the compound was present above the […] concentration at which good differential toxicity in favor of killing LNCaP cells in culture was observed. There was also evidence that the intact molecule reached its intended biological target—cellular DNA.
# c-Myc = c-Myc protein levels in LNCaP cells; type: cell-based, human
# AR from LNCaP cells = biological target: T1, AR from LNCaP cells (Homo sapiens, UniProt P10275, T878A); test: Competitive binding assay for the AR (relative binding affinity); details: dihydrotestosterone RBA=100
# T1 construct: Whole cell extracts prepared from LNCaP and T47D cells were used as sources of the AR and PR respectively; endogenous in cells; host or cells: LNCaP whole cell extract
# [10] = Pharmacokinetics / plasma levels in mice
# T1 sequence (P10275 whole entry T878A): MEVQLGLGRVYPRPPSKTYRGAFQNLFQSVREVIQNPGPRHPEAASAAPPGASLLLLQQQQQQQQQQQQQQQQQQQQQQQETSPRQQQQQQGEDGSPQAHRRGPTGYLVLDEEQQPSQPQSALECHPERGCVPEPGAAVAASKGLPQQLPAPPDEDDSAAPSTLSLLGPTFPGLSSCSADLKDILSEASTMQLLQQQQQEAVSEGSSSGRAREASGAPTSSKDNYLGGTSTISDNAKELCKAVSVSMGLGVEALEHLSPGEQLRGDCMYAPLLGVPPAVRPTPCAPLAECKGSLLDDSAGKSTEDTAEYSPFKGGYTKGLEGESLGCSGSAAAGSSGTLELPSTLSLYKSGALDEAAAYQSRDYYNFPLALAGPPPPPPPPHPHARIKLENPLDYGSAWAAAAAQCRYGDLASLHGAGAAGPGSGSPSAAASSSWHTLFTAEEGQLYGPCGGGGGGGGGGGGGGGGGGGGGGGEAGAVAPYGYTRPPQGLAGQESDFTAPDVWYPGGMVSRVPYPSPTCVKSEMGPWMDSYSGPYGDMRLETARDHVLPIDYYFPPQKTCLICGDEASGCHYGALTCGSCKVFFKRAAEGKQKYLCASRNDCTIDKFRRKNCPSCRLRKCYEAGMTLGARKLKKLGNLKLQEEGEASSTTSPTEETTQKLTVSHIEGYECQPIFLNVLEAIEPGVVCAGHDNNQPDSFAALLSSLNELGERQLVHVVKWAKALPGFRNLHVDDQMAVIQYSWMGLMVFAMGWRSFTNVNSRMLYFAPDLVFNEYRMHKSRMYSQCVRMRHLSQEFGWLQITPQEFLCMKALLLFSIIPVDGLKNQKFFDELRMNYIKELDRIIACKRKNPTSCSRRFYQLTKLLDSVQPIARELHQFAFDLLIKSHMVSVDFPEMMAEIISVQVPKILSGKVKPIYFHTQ
structure (smiles),measurement,setting,value
"CC12CC(CCCCCCNCCOC(=O)NCCCc3ccc(N(CCCl)CCCl)cc3)C3=C4CCC(=O)C=C4CCC3C1CCC2O (stereo not drawn) [Compound 11β-dichloro, 11β-{N-(2-(N-((N,N-bis-2-chloroethylaminophenyl)propyl)-carbamoyloxy)ethyl)aminohexyl}-17β-hydroxy-estra-Δ4(5),9(10)-3-one]",time to removal of the phosphate on Th389 of p70S6K,p70S6K,≤ 30 min
same,concentration showing increased Annexin V staining,LNCaP cells [1],> 5 µM
same,levels of Skp2,p45 Skp2,decreased
same,tumor growth of DLD-1 xenograft,[2],Inhibition of tumor growth
same,tumor growth of LNCaP xenograft,[3],inhibition of tumor growth
same,DNA fragmentation,LNCaP cells [4],DNA fragmentation occurs
same,time to cleavage of PARP,PARP,≤ 9 h
same,changes in LNCaP cell shape,LNCaP cells [5],dramatic contraction and detachment
same,initial change in levels of p21,p21 (WAF1/Cip1),initially decreased
same,increase in level of p21,p21 (WAF1/Cip1); up to 15 h,9 fold
same,sensitivity of AR positive LNCaP cells relative to AR negative PC3 and DU145 cells,[6],7 fold
same,cell cycle arrest,LNCaP cells [7],did not arrest cells in a specific point in the cell cycle
same,apoptotic response,LNCaP cells [8],LNCaP cells undergo apoptosis; also recorded: potent inducer of apoptosis and cell death; also recorded: activates an apoptotic response resulting in destruction of cells
same,tumor growth of ER-LBD-positive HeLa xenograft,[9],Inhibition of tumor growth
same,levels of p27,p27 (Kip1),increased
same,phosphorylation of 4E-BP1,4E-BP1,rapid disappearance of phosphate groups
same,DNA adducts formed by the intact compound in liver,liver DNA,isolated from liver DNA of treated animals
same,levels of the c-Myc protein,c-Myc,decreased rapidly
same,RBA (Relative Binding Affinity) for the AR,AR from LNCaP cells,33
same,plasma levels,"[10]; IP injection of radiolabeled compound, within 30 min",30 to 40 µM
same,intact compound in plasma by HPLC,"[10]; at 1 hour, along with several minor unidentified metabolites",lower concentrations
